# Where two headings read alike, the source gives them in different places.
# Legend:
# [1] = system: EML4-ALK I1171N induced Ba/F3 cells; test: CellTiter-Glo cell viability assay; format: cell-based, murine; conditions: Mus musculus, BaF3, 72 h; read-out: IC50
# [2] = target: T1, phospho-ROS1 in Ba/F3-CD74-ROS1-G2032R cells (Homo sapiens, UniProt P04233+P08922, G2032R); test: Immunoblot of ROS1 autophosphorylation; format: cell-based, murine; conditions: 2 h
# T1 construct: CD74 (N-terminal fusion partner, human CD74 P04233); expressed in transfected cells; host or cells: Ba/F3 (murine pro-B cells), retroviral infection
# LTK = target: T2, LTK (Homo sapiens, UniProt P29376); test: Kinase assay, 1 mM ATP; format: biochemical
# T2 construct: purchased Carna Biosciences, Inc. (Kobe, Japan); assay run by the vendor
# LATS2 = target: T3, LATS2 (Homo sapiens, UniProt Q9NRM7); test: Kinase assay, ATP Km; format: biochemical
# T3 construct: purchased Carna Biosciences
# MSSK1 = target: T4, MSSK1 (Homo sapiens, UniProt Q9UPE1); test: Kinase assay, ATP Km; format: biochemical
# T4 construct: purchased Carna Biosciences
# AurA/TPX2 = AurA/TPX2 (Homo sapiens, UniProt O14965); test: Kinase assay, ATP Km; format: biochemical
# PEK = target: T5, PEK (Homo sapiens, UniProt Q9NZJ5); test: Kinase assay, ATP Km; format: biochemical
# T5 construct: purchased Carna Biosciences
# WNK1 = target: T6, WNK1 (Homo sapiens, UniProt Q9H4A3); test: Kinase assay, ATP Km; format: biochemical
# T6 construct: purchased Carna Biosciences
# EEF2K = EEF2K (Homo sapiens, UniProt O00418); test: Kinase assay, ATP Km; format: biochemical
# DDR2 [3] = target: T7, DDR2 (Homo sapiens, UniProt Q16832); test: Kinase assay, 1 mM ATP; format: biochemical
# T7 sequence (Q16832 22-855): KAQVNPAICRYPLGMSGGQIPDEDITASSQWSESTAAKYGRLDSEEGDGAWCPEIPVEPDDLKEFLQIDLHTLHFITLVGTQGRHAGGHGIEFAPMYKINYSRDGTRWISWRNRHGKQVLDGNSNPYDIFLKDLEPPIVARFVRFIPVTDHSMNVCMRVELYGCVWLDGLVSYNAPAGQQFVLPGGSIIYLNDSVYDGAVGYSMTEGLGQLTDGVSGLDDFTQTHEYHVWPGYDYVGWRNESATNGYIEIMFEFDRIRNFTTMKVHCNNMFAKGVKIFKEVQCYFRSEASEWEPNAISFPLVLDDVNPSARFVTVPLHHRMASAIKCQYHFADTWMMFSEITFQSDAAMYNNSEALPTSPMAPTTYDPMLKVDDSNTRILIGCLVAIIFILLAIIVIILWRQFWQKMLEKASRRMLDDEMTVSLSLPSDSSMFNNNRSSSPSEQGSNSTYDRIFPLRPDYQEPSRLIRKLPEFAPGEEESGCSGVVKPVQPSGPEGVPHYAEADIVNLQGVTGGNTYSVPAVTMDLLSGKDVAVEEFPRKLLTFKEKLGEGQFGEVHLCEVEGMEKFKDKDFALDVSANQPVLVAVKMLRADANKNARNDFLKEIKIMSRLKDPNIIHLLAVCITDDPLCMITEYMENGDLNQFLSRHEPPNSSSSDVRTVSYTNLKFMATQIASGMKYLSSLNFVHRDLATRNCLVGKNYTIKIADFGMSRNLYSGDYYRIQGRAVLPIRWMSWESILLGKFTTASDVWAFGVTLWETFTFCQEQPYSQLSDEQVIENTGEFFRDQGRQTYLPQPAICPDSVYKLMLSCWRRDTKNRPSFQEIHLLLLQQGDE
# JNK2 = JNK2 (Homo sapiens, UniProt P45984); test: Kinase assay, ATP Km; format: biochemical
# AKT3 = AKT3 (Homo sapiens, UniProt Q9Y243); test: Kinase assay, ATP Km; format: biochemical
# TRKA (NTRK1) = target: T8, TRKA (NTRK1) (Homo sapiens, UniProt P04629); test: Kinase assay, ATP Km; format: biochemical; conditions: for IC50: ATP: Km
# T8 construct: purchased Carna Biosciences, Inc. (Kobe, Japan); assay run by the vendor
# CDK6/CycD3 = CDK6/CycD3 (Homo sapiens, UniProt Q00534); test: Kinase assay, ATP Km; format: biochemical
# MARK1 = MARK1 (Homo sapiens, UniProt Q9P0L2); test: Kinase assay, ATP Km; format: biochemical
# FYN(isoform a) = FYN(isoform a) (Homo sapiens, UniProt P06241); test: Kinase assay, ATP Km; format: biochemical
# TRKC (NTRK3) = target: T9, TRKC (NTRK3) (Homo sapiens, UniProt Q16288); test: Kinase assay, ATP Km; format: biochemical; conditions: for IC50: ATP: Km
# T9 construct: purchased Carna Biosciences, Inc. (Kobe, Japan); assay run by the vendor
# p70S6K = p70S6K (Homo sapiens, UniProt P23443); test: Kinase assay, ATP Km; format: biochemical
# IGF1R = target: T10, IGF1R (Homo sapiens, UniProt P08069); test: Kinase assay, ATP Km; format: biochemical
# T10 construct: purchased Carna Biosciences
# PDK1 = PDK1 (Homo sapiens, UniProt O15530); test: Kinase assay, ATP Km; format: biochemical
# PKACβ = PKACβ (Homo sapiens, UniProt P22694); test: Kinase assay, ATP Km; format: biochemical
# DDR2 [4] = target: T7, DDR2; test: Kinase assay, ATP Km; format: biochemical
# BRSK1 = BRSK1 (Homo sapiens, UniProt Q8TDC3); test: Kinase assay, ATP Km; format: biochemical
# CHK2 = target: T11, CHK2 (Homo sapiens, UniProt O96017); test: Kinase assay, ATP Km; format: biochemical
# T11 construct: purchased Carna Biosciences
# FGFR3 = target: T12, FGFR3 (Homo sapiens, UniProt P22607); test: Kinase assay, ATP Km; format: biochemical
# T12 construct: purchased Carna Biosciences
# MSK2 = target: T13, MSK2 (Homo sapiens, UniProt O75676); test: Kinase assay, ATP Km; format: biochemical
# T13 construct: purchased Carna Biosciences
# LOK = LOK (Homo sapiens, UniProt O94804); test: Kinase assay, ATP Km; format: biochemical
# T9 sequence (Q16288 32-839): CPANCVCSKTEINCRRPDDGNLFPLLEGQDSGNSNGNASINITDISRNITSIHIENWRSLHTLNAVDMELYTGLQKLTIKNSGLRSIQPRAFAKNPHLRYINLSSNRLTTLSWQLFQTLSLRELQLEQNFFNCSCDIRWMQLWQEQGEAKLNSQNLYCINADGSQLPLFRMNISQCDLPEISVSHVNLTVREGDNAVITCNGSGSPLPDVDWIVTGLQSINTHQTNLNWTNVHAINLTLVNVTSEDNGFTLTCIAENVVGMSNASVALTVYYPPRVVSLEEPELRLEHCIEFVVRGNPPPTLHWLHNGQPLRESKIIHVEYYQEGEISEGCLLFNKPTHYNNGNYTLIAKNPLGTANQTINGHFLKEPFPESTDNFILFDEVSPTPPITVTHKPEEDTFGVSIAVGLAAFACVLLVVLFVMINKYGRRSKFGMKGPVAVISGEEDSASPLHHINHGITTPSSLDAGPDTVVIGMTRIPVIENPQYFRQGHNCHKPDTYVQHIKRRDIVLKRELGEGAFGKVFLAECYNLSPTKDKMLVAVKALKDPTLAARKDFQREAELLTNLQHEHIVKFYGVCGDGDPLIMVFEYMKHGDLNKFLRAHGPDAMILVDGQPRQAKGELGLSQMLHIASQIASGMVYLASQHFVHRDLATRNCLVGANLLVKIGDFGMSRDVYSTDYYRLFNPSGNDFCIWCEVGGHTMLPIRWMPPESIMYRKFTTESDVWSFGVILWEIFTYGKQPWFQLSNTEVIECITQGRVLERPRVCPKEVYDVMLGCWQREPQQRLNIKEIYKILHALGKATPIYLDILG
# T2 sequence (P29376 17-864): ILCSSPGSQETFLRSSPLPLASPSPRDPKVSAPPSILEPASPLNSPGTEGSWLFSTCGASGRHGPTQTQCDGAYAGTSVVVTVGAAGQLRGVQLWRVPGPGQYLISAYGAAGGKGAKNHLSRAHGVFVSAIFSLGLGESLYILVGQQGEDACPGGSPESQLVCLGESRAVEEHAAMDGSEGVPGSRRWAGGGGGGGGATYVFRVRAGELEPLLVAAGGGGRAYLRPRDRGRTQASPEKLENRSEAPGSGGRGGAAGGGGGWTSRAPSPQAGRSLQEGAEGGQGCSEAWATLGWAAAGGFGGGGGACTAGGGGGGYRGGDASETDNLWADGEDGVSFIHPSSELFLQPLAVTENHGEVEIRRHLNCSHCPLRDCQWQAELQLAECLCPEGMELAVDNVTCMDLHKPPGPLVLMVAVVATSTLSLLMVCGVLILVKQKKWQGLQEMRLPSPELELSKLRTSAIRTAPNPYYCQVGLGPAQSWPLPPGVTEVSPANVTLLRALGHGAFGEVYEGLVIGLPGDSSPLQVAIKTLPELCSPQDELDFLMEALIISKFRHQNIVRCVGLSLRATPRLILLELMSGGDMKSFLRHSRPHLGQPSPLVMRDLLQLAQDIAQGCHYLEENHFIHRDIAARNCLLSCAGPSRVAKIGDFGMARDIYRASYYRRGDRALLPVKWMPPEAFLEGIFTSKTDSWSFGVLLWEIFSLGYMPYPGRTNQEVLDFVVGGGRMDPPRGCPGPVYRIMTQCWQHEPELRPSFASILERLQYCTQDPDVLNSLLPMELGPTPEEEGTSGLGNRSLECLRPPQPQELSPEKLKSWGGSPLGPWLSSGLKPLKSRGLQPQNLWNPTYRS
# T8 sequence (P04629 33-796): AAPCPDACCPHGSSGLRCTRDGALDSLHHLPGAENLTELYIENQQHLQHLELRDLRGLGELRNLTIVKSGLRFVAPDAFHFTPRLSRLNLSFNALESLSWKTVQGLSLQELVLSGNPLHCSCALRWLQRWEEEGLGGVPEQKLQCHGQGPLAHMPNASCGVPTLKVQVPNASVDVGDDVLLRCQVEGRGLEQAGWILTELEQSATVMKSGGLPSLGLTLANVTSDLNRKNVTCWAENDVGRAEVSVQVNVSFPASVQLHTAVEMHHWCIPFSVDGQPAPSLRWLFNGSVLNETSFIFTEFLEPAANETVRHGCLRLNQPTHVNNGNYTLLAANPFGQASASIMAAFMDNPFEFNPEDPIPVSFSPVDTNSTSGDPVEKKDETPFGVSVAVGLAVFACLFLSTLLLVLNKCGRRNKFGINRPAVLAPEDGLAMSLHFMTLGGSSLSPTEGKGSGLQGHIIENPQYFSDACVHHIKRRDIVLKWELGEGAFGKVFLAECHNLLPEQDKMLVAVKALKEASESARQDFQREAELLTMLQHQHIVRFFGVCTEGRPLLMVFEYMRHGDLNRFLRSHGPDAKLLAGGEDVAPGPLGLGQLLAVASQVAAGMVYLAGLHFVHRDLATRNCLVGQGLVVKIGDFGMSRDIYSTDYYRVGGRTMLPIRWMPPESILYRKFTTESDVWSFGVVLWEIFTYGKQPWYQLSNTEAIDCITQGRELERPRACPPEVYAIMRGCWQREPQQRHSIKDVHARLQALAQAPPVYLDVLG
# Sequence of FYN(isoform a) (P06241 whole entry, canonical isoform): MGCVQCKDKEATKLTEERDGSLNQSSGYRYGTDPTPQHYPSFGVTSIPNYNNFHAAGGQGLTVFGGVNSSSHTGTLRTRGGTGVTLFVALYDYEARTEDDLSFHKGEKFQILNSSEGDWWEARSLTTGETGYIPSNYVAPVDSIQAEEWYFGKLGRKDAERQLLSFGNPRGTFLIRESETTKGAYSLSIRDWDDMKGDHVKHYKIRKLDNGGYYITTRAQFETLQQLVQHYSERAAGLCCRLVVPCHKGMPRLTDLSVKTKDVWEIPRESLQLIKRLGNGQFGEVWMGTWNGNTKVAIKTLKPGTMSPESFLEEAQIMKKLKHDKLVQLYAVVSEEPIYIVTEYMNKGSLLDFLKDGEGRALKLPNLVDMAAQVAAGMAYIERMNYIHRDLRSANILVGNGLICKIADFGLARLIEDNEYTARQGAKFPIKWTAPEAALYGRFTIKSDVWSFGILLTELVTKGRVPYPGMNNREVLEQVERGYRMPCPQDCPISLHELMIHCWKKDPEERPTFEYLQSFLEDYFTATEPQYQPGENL
# T3 sequence (Q9NRM7 whole entry): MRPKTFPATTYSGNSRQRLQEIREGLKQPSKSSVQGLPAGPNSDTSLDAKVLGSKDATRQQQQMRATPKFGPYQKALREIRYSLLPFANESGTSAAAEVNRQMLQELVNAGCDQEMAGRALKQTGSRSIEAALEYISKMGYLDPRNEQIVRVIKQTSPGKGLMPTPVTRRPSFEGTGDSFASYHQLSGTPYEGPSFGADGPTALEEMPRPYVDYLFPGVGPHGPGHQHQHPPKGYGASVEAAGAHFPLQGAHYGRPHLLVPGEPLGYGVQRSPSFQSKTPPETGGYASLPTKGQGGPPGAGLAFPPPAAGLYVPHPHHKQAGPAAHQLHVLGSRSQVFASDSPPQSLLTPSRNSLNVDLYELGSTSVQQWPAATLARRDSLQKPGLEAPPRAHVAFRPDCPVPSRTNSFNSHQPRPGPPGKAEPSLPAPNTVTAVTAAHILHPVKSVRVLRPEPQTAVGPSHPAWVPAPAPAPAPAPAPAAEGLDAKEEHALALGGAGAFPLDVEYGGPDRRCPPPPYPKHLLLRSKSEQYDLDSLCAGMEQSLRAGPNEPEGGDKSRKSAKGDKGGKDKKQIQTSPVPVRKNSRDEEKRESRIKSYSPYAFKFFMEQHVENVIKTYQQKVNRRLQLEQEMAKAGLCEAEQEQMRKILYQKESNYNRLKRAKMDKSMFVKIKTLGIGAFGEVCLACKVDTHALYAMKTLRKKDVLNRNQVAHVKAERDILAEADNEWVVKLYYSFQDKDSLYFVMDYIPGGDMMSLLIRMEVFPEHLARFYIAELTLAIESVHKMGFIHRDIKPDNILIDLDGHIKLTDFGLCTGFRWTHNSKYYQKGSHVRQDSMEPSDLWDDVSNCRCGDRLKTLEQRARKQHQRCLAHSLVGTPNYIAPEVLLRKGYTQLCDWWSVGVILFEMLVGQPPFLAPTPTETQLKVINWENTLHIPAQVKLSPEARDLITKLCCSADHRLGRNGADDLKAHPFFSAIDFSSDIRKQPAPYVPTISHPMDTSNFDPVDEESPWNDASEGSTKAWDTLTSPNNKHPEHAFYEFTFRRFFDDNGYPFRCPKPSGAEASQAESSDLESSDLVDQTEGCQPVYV
# T1 sequence (P08922 1883-2347 G2032R limits assumed, one chain of several): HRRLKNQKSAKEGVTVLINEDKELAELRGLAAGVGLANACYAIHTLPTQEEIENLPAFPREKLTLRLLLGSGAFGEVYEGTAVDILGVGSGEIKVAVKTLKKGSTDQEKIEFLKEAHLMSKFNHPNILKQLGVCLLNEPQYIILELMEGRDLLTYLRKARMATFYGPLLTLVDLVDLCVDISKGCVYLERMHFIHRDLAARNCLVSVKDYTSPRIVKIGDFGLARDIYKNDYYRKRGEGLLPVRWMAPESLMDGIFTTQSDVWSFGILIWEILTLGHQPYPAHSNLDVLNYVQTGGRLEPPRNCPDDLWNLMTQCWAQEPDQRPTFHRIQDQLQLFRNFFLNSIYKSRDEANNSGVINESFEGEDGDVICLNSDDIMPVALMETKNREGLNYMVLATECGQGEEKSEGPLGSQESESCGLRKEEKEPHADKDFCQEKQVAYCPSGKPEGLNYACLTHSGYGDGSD
# Sequence of AKT3 (Q9Y243 whole entry): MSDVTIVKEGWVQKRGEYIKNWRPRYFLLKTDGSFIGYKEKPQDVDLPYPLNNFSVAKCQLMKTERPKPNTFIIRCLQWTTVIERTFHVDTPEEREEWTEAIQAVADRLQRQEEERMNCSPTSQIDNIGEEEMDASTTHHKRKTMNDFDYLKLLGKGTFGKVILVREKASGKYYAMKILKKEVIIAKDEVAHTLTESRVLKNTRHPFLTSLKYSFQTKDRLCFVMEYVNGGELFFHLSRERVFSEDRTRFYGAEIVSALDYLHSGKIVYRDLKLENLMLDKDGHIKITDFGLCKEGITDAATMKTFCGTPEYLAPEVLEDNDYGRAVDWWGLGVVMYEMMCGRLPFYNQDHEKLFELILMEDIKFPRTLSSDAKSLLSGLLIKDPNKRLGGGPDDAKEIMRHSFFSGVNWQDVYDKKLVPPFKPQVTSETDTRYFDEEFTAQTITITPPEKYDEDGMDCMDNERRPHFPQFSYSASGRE
structure (smiles),measurement,setting,value
C[C@@H](N)COc1ccc(-c2cnc3ccc(N[C@H](C)c4cccc(F)c4)nn23)cc1.O=C(O)CCCCC(=O)O [DS-6051b],IC50,[1],938 nM
same,Inhibition of autophosphorylation of ROS1,[2],inhibited autophosphorylation
same,% Inhibition,"LTK; 0.2μM, 1 mM ATP",almost completely inhibited
same,inhibition at 0.2 µM,"LTK; 0.2μM, 1 mM ATP",86.9%
same,IC50,LTK; ATP: 1 mM,25.4 nM
same,inhibition at 0.04 µM,LATS2,6.6%
same,inhibition at 0.04 µM,MSSK1,8.8%
same,inhibition at 0.04 µM,AurA/TPX2,5%
same,inhibition at 0.04 µM,PEK,6.2%
same,inhibition at 0.04 µM,WNK1,-0.3%
same,inhibition at 0.04 µM,EEF2K,0.139%
same,inhibition at 0.2 µM,"DDR2 [3]; 0.2μM, 1 mM ATP",43.5%
same,IC50,DDR2 [3]; ATP: 1 mM,299 nM
same,inhibition at 0.04 µM,JNK2,-2.4%
same,inhibition at 0.04 µM,AKT3,-0.9%
same,inhibition at 0.04 µM,TRKA (NTRK1),101%
same,IC50,TRKA (NTRK1),sub-nanomolar
same,IC50,TRKA (NTRK1); read-out: IC50,0.622 nM
same,inhibition at 0.04 µM,CDK6/CycD3,-2.6%
same,inhibition at 0.04 µM,MARK1,16.8%
same,inhibition at 0.04 µM,FYN(isoform a),42.6%
same,inhibition at 0.04 µM,TRKC (NTRK3),103%
same,IC50,TRKC (NTRK3),sub-nanomolar
same,IC50,TRKC (NTRK3); read-out: IC50,0.98 nM
same,inhibition at 0.04 µM,p70S6K,15.9%
same,inhibition at 0.04 µM,IGF1R,44.5%
same,inhibition at 0.04 µM,PDK1,5.3%
same,inhibition at 0.04 µM,PKACβ,-3%
same,inhibition at 0.04 µM,DDR2 [4],93.7%
same,inhibition at 0.04 µM,BRSK1,30.8%
same,inhibition at 0.04 µM,CHK2,-3.2%
same,inhibition at 0.04 µM,FGFR3,26.4%
same,inhibition at 0.04 µM,MSK2,4.5%
same,inhibition at 0.04 µM,LOK,35%

# From article PMC6688997 (Nature Communications, 2019)
